Measured values from US6562632B1, “Reactive derivatives of sulforhodamine 101 with enhanced hydrolytic stability” (Molecular Probes, Inc., priority 1995, dated 2003).
“And” between values parts separate entries of the source, which are not always exact repeats. Identical values can stand only once.

Legend:
streptavidin (STR) = streptavidin (STR) (Streptomyces avidinii, UniProt P22629); assay: Protein labeling with reactive dye, degree of substitution on streptavidin; details: for Degree of Substitution: STR
streptavidin (STR), sequence (P22629 25-183, species assumed): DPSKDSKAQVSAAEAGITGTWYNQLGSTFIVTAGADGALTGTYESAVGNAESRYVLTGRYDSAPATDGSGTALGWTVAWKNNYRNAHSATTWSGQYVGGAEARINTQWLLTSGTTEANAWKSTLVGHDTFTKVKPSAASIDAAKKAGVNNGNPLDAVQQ
Method: Protein conjugates of sulforhodamine 101 are prepared using Compound 2 (Example 2). The degree of substitution achieved on the selected proteins (bovine serum albumin (BSA), goat anti-mouse IgG (GAM) or streptavidin (STR)) is then determined.
A fresh solution of the desired protein is prepared that is 10 mg protein/mL in 0.1 M sodium bicarbonate. The labeling reagent (Compound 2) is dissolved in DMF to give a concentration of 10 mg dye/mL. Predetermined amounts of the labeling reagent in DMF are slowly added to the protein solution with stirring. A molar ratio of 10 equivalents dye to equivalent of protein is typical, though the optimal amount varies with particular labeling reagent and protein being labeled. The reaction mixture is incubated at room temperature for one hour. The dye-protein conjugate is separated from free unreacted reagent by gel filtration on a CELLUFINE GH-25 column equilibrated in PBS. The initial, protein-containing colored band is collected from the column, and the degree of substitution is determined by measuring the absorbance of the conjugate at 595 nm, and calculating the degree of substitution using an extinction coefficient of 80,000 cm^−1M^−1 for the dye.
Dye conjugates are similarly prepared using SSC excepting that the protein solution is maintained at pH 9, and the labeling reaction is conducted at ice bath temperatures to minimize hydrolysis of the labeling reagent.

[1] = target: bovine serum albumin (BSA) (Bos taurus, UniProt P02769); assay: Protein labeling with reactive dye, degree of substitution on BSA; details: Dye:Protein Ratio 15
bovine serum albumin (BSA), sequence (P02769 25-607): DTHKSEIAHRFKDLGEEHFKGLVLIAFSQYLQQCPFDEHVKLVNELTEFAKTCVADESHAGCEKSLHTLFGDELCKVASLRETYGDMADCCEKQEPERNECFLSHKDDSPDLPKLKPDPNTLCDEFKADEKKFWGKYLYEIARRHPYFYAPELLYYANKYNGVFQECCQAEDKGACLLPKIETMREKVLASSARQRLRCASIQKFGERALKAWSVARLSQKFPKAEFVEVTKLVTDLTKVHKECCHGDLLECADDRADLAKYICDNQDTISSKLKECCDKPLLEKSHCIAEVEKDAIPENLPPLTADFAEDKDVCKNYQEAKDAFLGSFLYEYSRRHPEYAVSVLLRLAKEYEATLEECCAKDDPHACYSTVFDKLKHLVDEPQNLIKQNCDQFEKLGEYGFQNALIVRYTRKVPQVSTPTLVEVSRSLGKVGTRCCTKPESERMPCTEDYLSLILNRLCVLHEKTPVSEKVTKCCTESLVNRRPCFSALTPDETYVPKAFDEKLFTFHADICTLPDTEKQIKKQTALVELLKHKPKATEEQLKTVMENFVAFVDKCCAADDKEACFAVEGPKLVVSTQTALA
Method: A fresh solution of the desired protein is prepared that is 10 mg protein/mL in 0.1 M sodium bicarbonate. […] Predetermined amounts of the labeling reagent in DMF are slowly added to the protein solution with stirring. A molar ratio of 10 equivalents dye to equivalent of protein is typical, though the optimal amount varies with particular labeling reagent and protein being labeled. The reaction mixture is incubated at room temperature for one hour. The dye-protein conjugate is separated from free unreacted reagent by gel filtration on a CELLUFINE GH-25 column equilibrated in PBS. The initial, protein-containing colored band is collected from the column, and the degree of substitution is determined by measuring the absorbance of the conjugate at 595 nm, and calculating the degree of substitution using an extinction coefficient of 80,000 cm^−1M^−1 for the dye.

[2] = 90% DMF and 10% aqueous sodium bicarbonate; two hours of incubation; TLC
Method: Compound 2 and SSC are separately dissolved in solutions that are 90% DMF and 10% aqueous sodium bicarbonate. Each solution is analyzed using thin layer chromatography (TLC) as follows: An aliquot from each sample is diluted 1:100 in methanol and 1 μL of the resulting solution is spotted on a silica gel TLC plate and developed in 15% methanol in chloroform.

Molecule | Degree of Substitution (streptavidin (STR); Dye:Protein Ratio 1) | Degree of Substitution (streptavidin (STR); Dye:Protein Ratio 2.5) | Degree of Substitution (streptavidin (STR); Dye:Protein Ratio 5.5) | Degree of Substitution (streptavidin (STR); Dye:Protein Ratio 8.0) | Degree of Substitution (streptavidin (STR); Dye:Protein Ratio 10) | Degree of Substitution (streptavidin (STR); Dye:Protein Ratio 20) | Degree of Substitution (streptavidin (STR); Dye:Protein Ratio 30) | Degree of Substitution [1] | Degree of substitution of the streptavidin conjugates used as immunoreagents (streptavidin (STR); two conjugates used in Example 24) | Decomposition in the presence of water [2]
sulfonyl chloride of sulforhodamine 101 [SSC, reference compound] | 0.066 | 1.2 | 2.4 | 3.0 | 3.9 | 4.9 | 5.1 | 3.2 |  | 
streptavidin conjugates of SSC: two streptavidin conjugates prepared with SSC [reference compound] |  |  |  |  |  |  |  |  | 2.4 dyes per mole and 3.9 dyes per mole | 
O=C(CCCCCNS(=O)(=O)c1ccc(C2=c3cc4c5c(c3Oc3c2cc2c6c3CCCN6CCC2)CCC[N+]=5CCC4)c(S(=O)(=O)[O-])c1)ON1C(=O)CCC1=O [Compound 2] | 0.76 | 1.6 | 4.4 | 5.6 | 6.0 | 6.0 | 6.9 | 4.5 |  | 10-20%
